Reference: patent publication US11298353B2, “Anti-inflammatory composition” (OSTEONEUROGEN INC., priority 2019, dated 2022)

Experiments:
[1] = system: diseased human lung fibroblasts (DHLFs); assay: Transcriptome analysis of TGF-β-treated diseased human lung fibroblasts; type: cell-based; settings: TGF-β 10 ng/ml + compound 50 μM, genes up-regulated at p<0.005
Procedure: Using diseased human lung fibroblasts (DHLFs) isolated from idiopathic pulmonary fibrosis patients, transcriptomes were analyzed comparatively between a group treated with TGF-β (10 ng/ml) and a group treated with TGF-β (10 ng/ml)+the compound (Formula 2) (50 μM) of the present invention.

ONGHEPA1 cell line [2] = assay: NOX4 expression in TGF-β-treated hepatic stellate cells (real-time PCR, ICC); type: cell-based, mouse; settings: TGF-β 10 ng/ml + compound 50 μM, real-time PCR and ICC
Procedure: Using the ONGHEPA1 cell line (KCTC13086BP) which is a mouse hepatic stellate cell line, the expression of NOX4 in a group treated with TGF-β (10 ng/ml) and a group treated with TGF-β (10 ng/ml)+the compound (Formula 2; 50 μM) of the present invention was compared by real-time PCR and immunocytochemistry (ICC).

ONGHEPA1 cell line [3] = assay: Reactive oxygen species production in TGF-β-treated hepatic stellate cells (H2DCFDA staining); type: cell-based, mouse; settings: TGF-β 10 ng/ml + compound 50 μM
Procedure: (§1) Using the ONGHEPA1 cell line, the production of reactive oxygen species (ROS) in a group treated with TGF-β (10 ng/ml) and a group treated with TGF-β (10 ng/ml)+the compound (Formula 2; 50 μM) of the present invention was compared by cell staining H2DCFDA (ThermoFischer, D399) which is a reactive oxygen species staining reagent, and the expression of CCL2 and CCL7 was compared by real-time PCR.

ONGHEPA1 cell line [4] = assay: CCL2 and CCL7 expression in TGF-β-treated hepatic stellate cells (real-time PCR); type: cell-based, mouse; settings: TGF-β 10 ng/ml + compound 50 μM
Procedure: as §1

RAW264.7 cell line [5] = assay: Expression of inflammatory factors in LPS-treated macrophages (real-time PCR or ELISA); type: cell-based; settings: LPS 100 ng/ml + compound 25 or 50 μM, 24 hours
Source text: In order to confirm the effect of the compound of the present invention in a special anti-inflammatory model, the anti-inflammatory effect of the compound of the present invention was examined using the RAW264.7 cell line (macrophage cell line).
Using the RAW264.7 cell line, the expression of inflammatory factors, INFα, IL-1β, CCL2 (MCP-1), CCL7 (MCP-3), CXCL2, CHOP and NOX1, in a group treated with LPS (lipopolysaccharide) and a group treated with LPS+the compound (Formula 2) of the present invention, was compared by real-time PCR or ELISA.
(§2) Specifically, the RAW264.7 cell line was cultured in RPMI liquid medium, and then divided into a normal control group (untreated), a group treated with LPS (100 ng/ml), and a group treated with the compound of the present invention (cells treated with 100 ng/ml of LPS and treated with 25 or 50 μM of the compound of the present invention). Each of the test groups treated was incubated for 24 hours, and then total RNA was extracted from the cell of each test group and synthesized into cDNA per 1 μg of total RNA, and real-time PCR for each inflammatory factor was performed. The real-time PCR was performed for […], and then the obtained data were statistically processed using t-test.

RAW264.7 cell line [6] = assay: TNFα expression in macrophages treated with various concentrations of LPS (real-time PCR); type: cell-based; settings: LPS 100 ng/ml to 10 μg/ml + compound 50 μM
Procedure: as §2
In addition, according to the same method as described above, the RAW264.7 cell line was treated with various concentrations (100 ng/ml to 10 μg/ml) of LPS, and the effect of treatment with 50 μM of the compound (Formula 2) of the present invention was examined.

CD14 [7] = molecular target: T1, CD14 (Mus musculus, UniProt P10810); assay: CD14 FITC immunofluorescence staining in LPS-treated RAW264.7 cells; type: cell-based; settings: LPS 100 ng/ml + compound 50 μM
T1 construct: endogenous in cells; host or cells: RAW264.7
T1 sequence (P10810 16-336): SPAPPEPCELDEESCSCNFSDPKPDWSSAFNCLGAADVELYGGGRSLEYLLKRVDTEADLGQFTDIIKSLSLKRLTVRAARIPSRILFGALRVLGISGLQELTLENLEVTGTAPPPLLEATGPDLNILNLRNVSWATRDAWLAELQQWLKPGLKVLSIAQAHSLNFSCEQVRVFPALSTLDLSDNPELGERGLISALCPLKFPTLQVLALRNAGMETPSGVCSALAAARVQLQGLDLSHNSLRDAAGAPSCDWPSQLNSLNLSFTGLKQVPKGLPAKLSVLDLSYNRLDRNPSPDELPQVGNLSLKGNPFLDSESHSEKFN
Source text: To verify this determination, the change in expression of an early inflammatory response stage factor (a factor involved in the early stage of LPS-induced inflammatory response) by treatment with the compound (Formula 2) of the present invention was examined by immunofluorescence staining using FITC.
Looking at the control group in FIG. 9 (see FIG. 10 which is an enlarged view), it can be seen that FITC fluorescence is concentrated on the surface (membrane portion) of the cell. […] However, looking at the LPS-treated group (see FIG. 10 which is an enlarged view), it can be seen that the cell changes into a circular shape and FITC fluorescence is distributed throughout the cell without being concentrated on the surface of the cell. This means that when treated with LPS, CD14 did bind to LPS and endocytosis occurred. In the case of the group treated with the compound of the present invention (see FIG. 12 which is an enlarged view), the same pattern as that in the control group appeared despite LPS treatment.

CD14 [8] = assay: CD14 expression in LPS-treated RAW264.7 cells (Western blot); type: cell-based; settings: LPS 100 ng/ml + compound 50 μM, 5 to 15 minutes after LPS
Procedure: In addition, in order to examine the effect of the compound of the present invention on the expression of CD14, the expression of CD14 in a group treated with LPS (100 ng/ml) and a group treated with 50 μM of the compound (Formula 2) of the present invention was compared by Western blot analysis.

COc1ccc(-c2cc(=O)c3c(O)c(OC)c(OCCN4CCNC(=O)C4)cc3o2)cc1OC [Formula 2]
inhibition of TGF-β up-regulated gene expression: NOX4 [1]: selected genes included NOX4 | increase in the expression of NOX4 (ONGHEPA1 cell line [2]): inhibited | production of reactive oxygen species (ONGHEPA1 cell line [3]): inhibited | expression of CCL2 (ONGHEPA1 cell line [4]): inhibited | expression of CCL7 (ONGHEPA1 cell line [4]): inhibited | expression of CCL2 (MCP-1) (RAW264.7 cell line [5]): decreased | expression of CCL7 (MCP-3) (RAW264.7 cell line [5]): decreased | expression of CHOP (RAW264.7 cell line [5]): decreased | expression of CXCL2 (RAW264.7 cell line [5]): decreased | expression of IL-1β (RAW264.7 cell line [5]): decreased | expression of INFα (RAW264.7 cell line [5]): decreased | expression of NOX1 (RAW264.7 cell line [5]): decreased | expression of TNFα (RAW264.7 cell line [6]): blocked the expression of TNFα regardless of the concentration of LPS | activity of CD14 involved in the early stage of inflammatory response (CD14 [7]): inhibited | interaction between CD14 and LPS (CD14 endocytosis pattern) (CD14 [7]): blocked the interaction between CD14 and LPS | increase in expression of CD14 (CD14 [8]): decreased
